Test results as given in patent publication US20260226019A1, “NEGATIVE ALLOSTERIC MODULATORS OF METABOTROPIC GLUTAMATE RECEPTOR 2” (Vanderbilt University, priority 2023, published 2026).
pIC50: −log10 of the molar value.

Experiments:
human mGlu3 = molecular target: T1, human mGlu3 (Homo sapiens, UniProt Q14832); experiment: mGlu GIRK cell-based thallium flux assay, human mGlu3; conditions: HEK-293 cells co-expressing human mGlu3 and GIRK, EC80 glutamate, single experiment
T1 construct: expressed in transfected cells; host or cells: HEK-293 stably co-expressing GIRK channels
T1 sequence (Q14832 23-879): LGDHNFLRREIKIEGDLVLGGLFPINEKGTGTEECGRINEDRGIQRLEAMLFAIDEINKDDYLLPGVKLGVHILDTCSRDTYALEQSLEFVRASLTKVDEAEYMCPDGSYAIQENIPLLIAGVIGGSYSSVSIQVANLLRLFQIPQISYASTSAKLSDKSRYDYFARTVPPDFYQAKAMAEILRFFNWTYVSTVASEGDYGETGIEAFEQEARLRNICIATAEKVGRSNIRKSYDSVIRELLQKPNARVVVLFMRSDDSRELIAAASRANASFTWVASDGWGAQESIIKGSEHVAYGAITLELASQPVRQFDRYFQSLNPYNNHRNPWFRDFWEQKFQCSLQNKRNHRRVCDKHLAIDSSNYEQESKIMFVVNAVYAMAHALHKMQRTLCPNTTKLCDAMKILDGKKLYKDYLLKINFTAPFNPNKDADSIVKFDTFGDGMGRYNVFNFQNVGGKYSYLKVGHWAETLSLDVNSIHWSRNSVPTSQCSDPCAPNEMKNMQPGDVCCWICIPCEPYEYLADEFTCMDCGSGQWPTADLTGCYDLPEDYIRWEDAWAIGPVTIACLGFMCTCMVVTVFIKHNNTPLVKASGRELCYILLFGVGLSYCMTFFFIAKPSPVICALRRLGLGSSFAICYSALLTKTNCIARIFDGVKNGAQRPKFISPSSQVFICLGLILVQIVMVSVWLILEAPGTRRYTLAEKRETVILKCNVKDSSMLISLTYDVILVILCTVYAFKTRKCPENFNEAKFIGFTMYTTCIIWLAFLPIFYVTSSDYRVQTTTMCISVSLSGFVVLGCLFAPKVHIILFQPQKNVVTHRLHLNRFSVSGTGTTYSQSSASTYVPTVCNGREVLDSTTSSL
Protocol: (§1) Human embryonic kidney (HEK-293) cell lines stably co-expressing human or rat mGlu2 and G protein-coupled inwardly rectifying potassium (GIRK) channels, or human mGlu3 and GIRK, were used for in vitro evaluation of compound activity in thallium flux assay using a fluorescent thallium indicator dye.
(§2) The day before the assay, GIRK cells co-expressing human mGlu3, human or rat mGlu2, as described above, were plated in black-walled, clear-bottomed, amine-coated 384-well plates at a density of 15,000 cells/[…]/well in the assay medium (glutamine-depleted basal DMEM supplemented with 10% dialyzed FBS, 20 mM HEPES, 1 mM sodium pyruvate). Cells were incubated at 37° C. in the presence of 5% CO2. The next day, assay buffer (Hanks balanced salt solution, 20 mM HEPES, 4.16 mM sodium bicarbonate, pH 7.2) was prepared to dilute compounds and Thallos AM fluorescent dye solution. The 2× Thallos dye solution (final concentration 0.34 μM to the cells) was prepared by mixing the dye stock (2.97 mM in DMSO) to 1:1 with 10% pluronic acid before adding to the assay buffer. Cells were washed with assay buffer using a microplate washer to remove the medium, resulting in 20 μL of buffer remaining in each well. […] During the cell dye loading incubation period, a 10-point concentration serial dilution of compound was created from a 10 mM DMSO compound stock by performing a 1:3 serial dilution in DMSO using the Bravo liquid handler. The 2× compound plate was generated by transferring 0.24 μL of the diluted compound in each well to a daughter plate using an Echo acoustic liquid handler. This is further diluted in 40 μL assay buffer, resulting in a range from […] to 1.5 nM final concentration in the assay. The agonist plate (5×) was prepared to include EC80 glutamate concentration (a concentration to elicit 80% of a maximally effective glutamate concentration) in thallium buffer (125 mM sodium bicarbonate, 1 mM magnesium sulfate, 1.8 mM calcium sulfate, 5 mM glucose, 10 mM HEPES, pH 7.2, 12.5 mM thallium sulfate).
(§3) After dye-loading, cell plates were washed with assay buffer to remove excess extracellular dye using a microplate washer, resulting in 20 μL of buffer remaining in each well. After a ten-minute equilibration period, cell, compound and agonist plates were loaded into a Hamamatsu μCell kinetic imaging plate reader equipped with liquid handler to monitor fluorescence changes at 480 nm excitation and 540 nm emission settings. Briefly, after collection of baseline fluorescence, 20 μL of compound was added and incubated for two minutes and twenty seconds. This is immediately followed by adding 10 μL of glutamate-thallium buffer to the wells containing compound. The fluorescent signal was monitored an additional 2.5 minutes after the glutamate addition. Multiple reference wells containing no compound received either no glutamate (for a baseline reference), EC80 glutamate, or ECmax glutamate (for normalization to maximum response). […] Each compound concentration series occurred one time in each plate, and replicates from two or three plates were used in each experimental run. Thallium solutions were handled and disposed of according to guidelines from the Vanderbilt University Chemical Safety department.
(§4) Data were normalized using a static ratio function (F/F0) by dividing every fluorescent measurement by the initial fluorescent value for the corresponding well. The increase in signal resulting from the glutamate/thallium addition of the second add was measured by determining the slope from 3 seconds to 13 seconds after the addition. The average of all baseline slopes (no compound, no glutamate) was determined and this value was subtracted from all other slope values. The average of all ECmax slopes was determined and this value was used to normalize the baseline-corrected slopes to a percent max value (% Emax).

human mGlu2 = molecular target: T2, human mGlu2 (Homo sapiens, UniProt Q14416); experiment: mGlu GIRK cell-based thallium flux assay, human mGlu2; conditions: HEK-293 cells co-expressing human mGlu2 and GIRK, EC80 glutamate, single experiment
T2 construct: expressed in transfected cells; host or cells: HEK-293 stably co-expressing GIRK channels
T2 sequence (Q14416 19-872): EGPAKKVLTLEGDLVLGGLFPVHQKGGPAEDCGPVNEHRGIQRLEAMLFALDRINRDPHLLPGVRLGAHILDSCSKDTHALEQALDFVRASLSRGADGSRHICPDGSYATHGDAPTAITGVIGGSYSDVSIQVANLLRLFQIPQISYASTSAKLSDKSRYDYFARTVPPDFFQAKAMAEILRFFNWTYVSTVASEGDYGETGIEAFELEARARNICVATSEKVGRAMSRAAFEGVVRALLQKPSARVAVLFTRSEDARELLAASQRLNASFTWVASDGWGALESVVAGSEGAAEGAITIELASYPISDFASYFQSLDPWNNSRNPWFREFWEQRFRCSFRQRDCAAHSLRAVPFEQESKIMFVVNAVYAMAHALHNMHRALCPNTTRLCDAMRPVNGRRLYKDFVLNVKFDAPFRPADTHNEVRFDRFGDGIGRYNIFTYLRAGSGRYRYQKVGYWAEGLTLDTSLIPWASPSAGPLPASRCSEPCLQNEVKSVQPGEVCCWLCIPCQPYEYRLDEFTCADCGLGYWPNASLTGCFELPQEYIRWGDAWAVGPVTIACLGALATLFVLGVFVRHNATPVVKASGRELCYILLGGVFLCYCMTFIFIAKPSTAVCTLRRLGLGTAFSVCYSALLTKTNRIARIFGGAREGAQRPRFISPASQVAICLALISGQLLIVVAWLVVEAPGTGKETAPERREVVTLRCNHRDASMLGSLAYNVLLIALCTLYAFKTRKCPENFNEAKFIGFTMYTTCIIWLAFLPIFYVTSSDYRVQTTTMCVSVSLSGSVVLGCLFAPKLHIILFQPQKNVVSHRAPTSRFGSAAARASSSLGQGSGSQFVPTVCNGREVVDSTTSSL
Protocol: as §1, §2, §3, §4

Structure (SMILES) | pIC50 (human mGlu2) | other results
O=C1NCc2c1cc(-c1ccc(F)cc1F)cc2C1CCNC1 (stereo not shown) [Compound B6, 6-(2,4-difluorophenyl)-4-(pyrrolidin-3-yl)isoindolin-1-one] | < 5.00 | pIC50 (human mGlu3): < 5.00
CC(C)Cn1nccc1-c1cc(-c2ccc(F)cc2F)cc2c1CNC2=O [Compound 76, 6-(2,4-difluorophenyl)-4-(1-isobutyl-1H-pyrazol-5-yl)isoindolin-1-one] | 6.75 | pIC50 (human mGlu3): < 5.00
Cc1nn(CC(C)(C)O)c(C)c1-c1cc(-c2ccc(F)cc2F)cc2c1CNC2=O [Compound 41, 6-(2,4-difluorophenyl)-4-(1-(2-hydroxy-2-methylpropyl)-3,5-dimethyl-1H-pyrazol-4-yl)isoindolin-1-one] | 6.36 | pIC50 (human mGlu3): < 5.00
O=C1NCc2c1cc(-c1ccc(F)cc1F)cc2-c1ccc(=O)n(C(F)F)c1 [Compound 40, 4-(1-(difluoromethyl)-6-oxo-1,6-dihydropyridin-3-yl)-6-(2,4-difluorophenyl)isoindolin-1-one] | 7.18 | Human mGlu3 GIRK IC50 (nM) (human mGlu3): Inactive
O=C1NCc2c1cc(-c1ccc(F)cc1F)cc2-c1ccc[nH]c1=O [Compound 64, 6-(2,4-difluorophenyl)-4-(2-oxo-1,2-dihydropyridin-3-yl)isoindolin-1-one] | 6.53 | Human mGlu3 GIRK IC50 (nM) (human mGlu3): Inactive
CC1(C)CN(c2cc(-c3ccc(F)cc3F)cc3c2CNC3=O)CC(C)(C)O1 [Compound A6, 6-(2,4-difluorophenyl)-4-(2,2,6,6-tetramethylmorpholino)isoindolin-1-one] | 5.68 | Human mGlu3 GIRK IC50 (nM) (human mGlu3): Inactive
CC(=O)Nc1ccc(-c2cc(-c3ccc(F)cc3F)cc3c2CNC3=O)cn1 [Compound 34, N-(5-(6-(2,4-difluorophenyl)-1-oxoisoindolin-4-yl)pyridin-2-yl)acetamide] | 6.73 | Human mGlu3 GIRK IC50 (nM) (human mGlu3): Inactive
O=C1NCc2c1cc(-c1ccc(F)cc1F)cc2N1CCn2nccc21 [Compound A2, 6-(2,4-difluorophenyl)-4-(2,3-dihydro-1H-imidazo[1,2-b]pyrazol-1-yl)isoindolin-1-one] | 6.66 | Human mGlu3 GIRK IC50 (nM) (human mGlu3): Inactive
Cc1cc(-c2cc(-c3ccc(F)cc3F)cc3c2CNC3=O)n(C)n1 [Compound 79, 6-(2,4-difluorophenyl)-4-(1,3-dimethyl-1H-pyrazol-5-yl)isoindolin-1-one] |  | pIC50 (human mGlu3): < 5.00
Cc1ncccc1-c1cc(C2=CCOCC2)cc2c1CNC2=O [Compound 97, 6-(3,6-dihydro-2H-pyran-4-yl)-4-(2-methylpyridin-3-yl)isoindolin-1-one] | 6.71 | 
O=C1NCc2c1cc(-c1ccc(F)cc1F)cc2-c1cnc2ccccc2c1 [Compound 25, 6-(2,4-difluorophenyl)-4-(quinolin-3-yl)isoindolin-1-one] | 5.48 | 
O=C1NCc2c1cc(-c1ccc(F)cc1F)cc2-c1ccc(F)cc1F [Compound 4, 4,6-bis(2,4-difluorophenyl)isoindolin-1-one] | 5.68 | 
O=C1NCc2c1cc(-c1ccc(F)cc1F)cc2-c1cnn(C2CCCC2)c1 [Compound 16, 4-(1-cyclopentyl-1H-pyrazol-4-yl)-6-(2,4-difluorophenyl)isoindolin-1-one] | 5.50 | 
CC(C)n1nccc1-c1cc(C2CCOCC2)cc2c1CNC2=O [Compound 88, 4-(1-isopropyl-1H-pyrazol-5-yl)-6-(tetrahydro-2H-pyran-4-yl)isoindolin-1-one] | 5.77 | 
COc1ccc(-c2cc3c(c(-c4cnsc4)c2)CNC3=O)c(F)c1F [Compound 49, 6-(2,3-difluoro-4-methoxyphenyl)-4-(isothiazol-4-yl)isoindolin-1-one] | 5.46 | 
O=C1NCc2c1cc(-c1ccc(F)cc1F)cc2-c1cnn(C2CCC2)c1 [Compound 17, 4-(1-cyclobutyl-1H-pyrazol-4-yl)-6-(2,4-difluorophenyl)isoindolin-1-one] | 5.59 | 

Structure (SMILES) | pIC50 (human mGlu2) | other results
COc1cc(F)c(-c2cc3c(c(-c4cnsc4)c2)CNC3=O)c(F)c1 [Compound 56, 6-(2,6-difluoro-4-methoxyphenyl)-4-(isothiazol-4-yl)isoindolin-1-one] | < 5.00 | 
O=C1NCc2c1cc(-c1ccc(F)cc1F)cc2-c1ccnc(C(F)(F)F)c1 [Compound 90, 6-(2,4-difluorophenyl)-4-(2-(trifluoromethyl)pyridin-4-yl)isoindolin-1-one] | 6.52 | 
Cc1cc(-c2cc(C3=CCOCC3)cc3c2CNC3=O)n(C)n1 [Compound 96, 6-(3,6-dihydro-2H-pyran-4-yl)-4-(1,3-dimethyl-1H-pyrazol-5-yl)isoindolin-1-one] | 6.42 | 
O=C1NCc2c1cc(-c1ccc(F)cc1F)cc2-c1ccnnc1 [Compound 12, 6-(2,4-difluorophenyl)-4-(pyridazin-4-yl)isoindolin-1-one] | 5.95 | 
CCOc1ccc(-c2cc3c(c(-c4cnsc4)c2)CNC3=O)c(F)c1F [Compound 54, 6-(4-ethoxy-2,3-difluorophenyl)-4-(isothiazol-4-yl)isoindolin-1-one] | < 5.00 | 
O=C1NCc2c1cc(-c1ccc(F)cc1F)cc2-c1ccco1 [Compound 29, 6-(2,4-difluorophenyl)-4-(furan-2-yl)isoindolin-1-one] |  | Human mGlu2 GIRK IC50 (nM) (human mGlu2): Inactive
O=C1NCc2c1cc(-c1ccc(F)cc1F)cc2-c1ccc2cccnc2c1 [Compound 22, 6-(2,4-difluorophenyl)-4-(quinolin-7-yl)isoindolin-1-one] | 5.62 | 
O=C1NCc2c1cc(-c1ccc(F)cc1F)cc2-c1cnc(C(F)(F)F)nc1 [Compound 32, 6-(2,4-difluorophenyl)-4-(2-(trifluoromethyl)pyrimidin-5-yl)isoindolin-1-one] | 5.50 | 
O=C1NCc2c1cc(-c1ccc(F)cc1F)cc2-c1ccc2nccnc2c1 [Compound 27, 6-(2,4-difluorophenyl)-4-(quinoxalin-6-yl)isoindolin-1-one] | 5.74 | 
Cn1cc2c(n1)CN(c1cc(-c3ccc(F)cc3F)cc3c1CNC3=O)C2 [Compound A22, 6-(2,4-difluorophenyl)-4-(2-methyl-2,6-dihydropyrrolo[3,4-c]pyrazol-5(4H)-yl)isoindolin-1-one] | < 5.00 | 
CCn1nccc1-c1cc(C2=CCOCC2)cc2c1CNC2=O [Compound 95, 6-(3,6-dihydro-2H-pyran-4-yl)-4-(1-ethyl-1H-pyrazol-5-yl)isoindolin-1-one] | 6.49 | 
Cc1cc(-c2cc3c(c(-c4cnsc4)c2)CNC3=O)c(F)cc1C#N [Compound 51, 5-fluoro-4-(7-(isothiazol-4-yl)-3-oxoisoindolin-5-yl)-2-methylbenzonitrile] |  | Human mGlu2 GIRK IC50 (nM) (human mGlu2): Inactive
O=C1NCc2c1cc(-c1ccc(F)cc1F)cc2-c1ccsc1 [Compound 15, 6-(2,4-difluorophenyl)-4-(thiophen-3-yl)isoindolin-1-one] | 5.49 | 
O=C1NCc2c1cc(-c1ccc(OC(F)F)cc1F)cc2-c1cnsc1 [Compound 46, 6-(4-(difluoromethoxy)-2-fluorophenyl)-4-(isothiazol-4-yl)isoindolin-1-one] | < 5.00 | 
N#Cc1c(F)ccc(-c2cc3c(c(-c4cnsc4)c2)CNC3=O)c1F [Compound 55, 2,6-difluoro-3-(7-(isothiazol-4-yl)-3-oxoisoindolin-5-yl)benzonitrile] | < 5.00 | 
O=C1NCc2c1cc(-c1ccc(F)cc1F)cc2N1C[C@H]2C[C@@H]1CO2 (racemic) [Compound A21, rac-4-((1R,4R)-2-oxa-5-azabicyclo[2.2.1]heptan-5-yl)-6-(2,4-difluorophenyl)isoindolin-1-one] | 6.51 | 
